The text below walks through data of patent US6426343B1, “Preparation and use of a specific GABA-Aα5 receptor ligand for treatment of Alzheimer's disease” (Merck Sharp & Dohme Ltd., priority 1995, dated 2002).

Structures are written as SMILES.

As usually defined, the Ki is the equilibrium dissociation constant of an inhibitor or competing ligand from its target. A low value points to tighter binding. As usually defined, the inhibition is the drop in the measured response relative to a control, in per cent.

One series addresses T1, α6β3γ2 (Homo sapiens, UniProt P18507+Q16445).
T1 construct: expressed in transfected cells
The experiment in a line: Radioligand binding, membranes of stably transfected cells.

A further series has as its system GABAA receptors. The experiment in a line: In vivo [3H]Ro 15-1788 binding in whole mouse brain. As to the method: The in vivo binding of [^3H]Ro 15-1788 to mouse brain was performed essentially as described by Goeders and Kuhar (1985). Male Swiss-Webster mice received a 0.9% NaCl solution containing 50 mCi/kg of [^3H]Ro 15-1788 (0.05 ml/10 g of body weight) via the tail vein. […] Each mouse brain was then rapidly removed, homogenised in 5.0 ml of 50 mM Tris HCl, 5.0 mM EDTA, pH 7.4 at 4° C. using an ultra-turrax homogeniser for 10 s at setting 5. In a separate series of experiments different brain regions, selected for their preferential expression of particular GABA subtypes were also examined. Binding of [^3H]Ro 15-1788 to cerebellum is almost exclusively α1-like (Quirk et al, 1994), whereas binding to spinal cord is indicative of binding to receptors containing α2 or α3-subtypes, α1, α4 and α5 are rare or absent in this region (Wisden et al, 1992). Brains were rapidly dissected into forebrain and cerebellum and the spinal cord was also removed. […] Volumes ([…]) of homogenate were filtered rapidly through GF/B filters, washed with 2×5.0 ml volumes of ice-cold buffer and the residual radioactivity was counted by liquid scintillation spectroscopy.

In another series the target is Cerebellum (α1) (Mus musculus, UniProt P22723+P62812). The experiment in a line: In vivo [3H]Ro 15-1788 binding, cerebellum. The method, then: (§1) The in vivo binding of [^3H]Ro 15-1788 to mouse brain was performed essentially as described by Goeders and Kuhar (1985). Male Swiss-Webster mice received a 0.9% NaCl solution containing 50 mCi/kg of [^3H]Ro 15-1788 (0.05 ml/10 g of body weight) via the tail vein. […] Each mouse brain was then rapidly removed, homogenised in 5.0 ml of 50 mM Tris HCl, 5.0 mM EDTA, pH 7.4 at 4° C. using an ultra-turrax homogeniser for 10 s at setting 5. In a separate series of experiments different brain regions, selected for their preferential expression of particular GABA subtypes were also examined. Binding of [^3H]Ro 15-1788 to cerebellum is almost exclusively α1-like (Quirk et al, 1994), whereas binding to spinal cord is indicative of binding to receptors containing α2 or α3-subtypes, α1, α4 and α5 are rare or absent in this region (Wisden et al, 1992). Brains were rapidly dissected into forebrain and cerebellum and the spinal cord was also removed. Each forebrain was homogenised in 4.0 ml of buffer (approximately 14 ml/g wet weight of tissue), each cerebellum was homogenised in 1.0 ml of buffer (approximately 14 ml/g wet weight of tissue) and each spinal cord in 1.0 ml of buffer (approximately […] wet weight of tissue). Volumes ([…]) of homogenate were filtered rapidly through GF/B filters, washed with 2×5.0 ml volumes of ice-cold buffer and the residual radioactivity was counted by liquid scintillation spectroscopy.
(§2) Mice were injected intraperitoneally with FG 8094, 10 mg/kg or 1 mg/kg, 30 minutes prior to sacrifice and [^3H]Ro 15-1788 (0.1 mCi/g). Brain regions were dissected, homogenised and filtered as described in methods.

For series [1], the system named is benzodiazepine binding site of α1-containing GABA receptors. Kind of series: In vivo [3H]Ro 15-1788 binding, cerebellum. Conditions: male, Swiss-Webster, mouse, cerebellum, intraperitoneal, 1 mg/kg, probe [3H]Ro 15-1788. The method, then: as §1, §2
Another series addresses α1β3γ2 (Homo sapiens, UniProt P14867+P18507). Kind of series: biochemical.
The mark [2] stands for this setting: ip, read-out: percentage inhibition of in vivo [3H]Ro 15-1788 binding, cerebellum.

Sequence of Cerebellum (α1) (P62812 28-455): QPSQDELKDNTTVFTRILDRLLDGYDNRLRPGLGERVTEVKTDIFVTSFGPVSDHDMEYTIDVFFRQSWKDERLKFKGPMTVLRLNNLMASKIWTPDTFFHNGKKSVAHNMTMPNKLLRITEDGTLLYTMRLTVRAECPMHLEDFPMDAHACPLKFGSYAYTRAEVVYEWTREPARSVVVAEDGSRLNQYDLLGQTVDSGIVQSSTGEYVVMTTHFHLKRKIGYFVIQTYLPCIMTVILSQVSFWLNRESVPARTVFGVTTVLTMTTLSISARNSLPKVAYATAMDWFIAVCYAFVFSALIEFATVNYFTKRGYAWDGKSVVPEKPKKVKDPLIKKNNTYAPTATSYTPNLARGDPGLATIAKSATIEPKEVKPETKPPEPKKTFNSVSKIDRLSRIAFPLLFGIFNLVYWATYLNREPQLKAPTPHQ
Sequence of Cerebellum (α1) (P22723 39-474): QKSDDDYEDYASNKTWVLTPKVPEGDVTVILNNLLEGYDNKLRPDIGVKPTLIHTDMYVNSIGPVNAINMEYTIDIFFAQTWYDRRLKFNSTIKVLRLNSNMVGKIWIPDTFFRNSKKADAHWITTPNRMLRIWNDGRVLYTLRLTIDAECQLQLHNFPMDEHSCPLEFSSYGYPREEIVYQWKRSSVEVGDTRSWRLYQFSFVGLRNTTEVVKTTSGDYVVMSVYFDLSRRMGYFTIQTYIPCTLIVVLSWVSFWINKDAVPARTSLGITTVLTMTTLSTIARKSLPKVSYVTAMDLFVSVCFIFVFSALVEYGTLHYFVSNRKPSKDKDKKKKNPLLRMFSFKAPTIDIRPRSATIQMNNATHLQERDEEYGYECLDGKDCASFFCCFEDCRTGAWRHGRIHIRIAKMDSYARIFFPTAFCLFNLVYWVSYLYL
Sequence of Cerebellum (α1) (P63137 25-474 partner limits assumed): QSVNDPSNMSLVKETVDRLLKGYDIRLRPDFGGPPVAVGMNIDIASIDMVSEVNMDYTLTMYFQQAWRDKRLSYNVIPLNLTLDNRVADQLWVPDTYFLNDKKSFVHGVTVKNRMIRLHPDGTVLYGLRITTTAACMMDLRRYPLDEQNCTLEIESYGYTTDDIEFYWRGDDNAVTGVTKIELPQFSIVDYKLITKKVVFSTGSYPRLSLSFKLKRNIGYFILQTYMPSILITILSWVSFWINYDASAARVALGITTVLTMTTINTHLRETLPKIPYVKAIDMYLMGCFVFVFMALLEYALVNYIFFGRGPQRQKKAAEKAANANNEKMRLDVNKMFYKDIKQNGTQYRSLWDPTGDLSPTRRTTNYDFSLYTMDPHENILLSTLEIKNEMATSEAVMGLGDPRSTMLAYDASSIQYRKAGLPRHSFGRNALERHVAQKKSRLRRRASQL
Sequence of α1β3γ2 (P14867 28-456): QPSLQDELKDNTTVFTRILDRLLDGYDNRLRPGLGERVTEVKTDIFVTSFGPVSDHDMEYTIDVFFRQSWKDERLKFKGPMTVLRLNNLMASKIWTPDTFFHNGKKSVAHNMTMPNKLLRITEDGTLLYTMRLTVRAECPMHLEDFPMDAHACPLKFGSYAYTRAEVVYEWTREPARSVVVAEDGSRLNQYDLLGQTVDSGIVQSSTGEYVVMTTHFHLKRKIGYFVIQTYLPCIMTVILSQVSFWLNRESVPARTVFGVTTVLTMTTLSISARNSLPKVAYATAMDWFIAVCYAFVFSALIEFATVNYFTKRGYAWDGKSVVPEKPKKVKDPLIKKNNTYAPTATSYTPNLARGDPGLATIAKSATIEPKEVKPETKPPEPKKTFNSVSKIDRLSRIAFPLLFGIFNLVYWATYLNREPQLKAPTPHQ
Sequence of α1β3γ2 (P28472 26-473 partner): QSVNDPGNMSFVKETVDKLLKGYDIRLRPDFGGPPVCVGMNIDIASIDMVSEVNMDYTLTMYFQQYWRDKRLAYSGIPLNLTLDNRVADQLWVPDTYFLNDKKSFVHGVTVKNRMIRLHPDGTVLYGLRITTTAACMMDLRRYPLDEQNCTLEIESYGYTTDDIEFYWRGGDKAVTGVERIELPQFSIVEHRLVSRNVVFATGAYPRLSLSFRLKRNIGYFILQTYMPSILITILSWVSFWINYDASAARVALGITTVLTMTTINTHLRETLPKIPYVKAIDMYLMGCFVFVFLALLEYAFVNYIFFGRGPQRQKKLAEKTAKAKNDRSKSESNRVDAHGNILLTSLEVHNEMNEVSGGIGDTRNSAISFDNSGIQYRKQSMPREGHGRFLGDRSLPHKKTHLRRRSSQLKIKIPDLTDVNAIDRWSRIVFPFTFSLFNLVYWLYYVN
Sequence of α1β3γ2 (P18507 40-467 isoform P18507-1 limits assumed): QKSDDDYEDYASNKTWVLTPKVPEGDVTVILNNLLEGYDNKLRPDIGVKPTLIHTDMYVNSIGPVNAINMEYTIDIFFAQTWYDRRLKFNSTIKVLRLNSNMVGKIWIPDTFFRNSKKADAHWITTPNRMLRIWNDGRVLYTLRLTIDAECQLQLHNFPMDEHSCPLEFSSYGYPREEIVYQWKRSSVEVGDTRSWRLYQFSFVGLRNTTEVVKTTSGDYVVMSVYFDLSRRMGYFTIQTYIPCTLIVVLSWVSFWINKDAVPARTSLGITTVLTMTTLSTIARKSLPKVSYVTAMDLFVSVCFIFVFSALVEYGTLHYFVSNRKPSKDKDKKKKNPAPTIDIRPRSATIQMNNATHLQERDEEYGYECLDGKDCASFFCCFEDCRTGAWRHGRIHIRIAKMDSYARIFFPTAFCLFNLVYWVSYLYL
T1 sequence (Q16445 20-453): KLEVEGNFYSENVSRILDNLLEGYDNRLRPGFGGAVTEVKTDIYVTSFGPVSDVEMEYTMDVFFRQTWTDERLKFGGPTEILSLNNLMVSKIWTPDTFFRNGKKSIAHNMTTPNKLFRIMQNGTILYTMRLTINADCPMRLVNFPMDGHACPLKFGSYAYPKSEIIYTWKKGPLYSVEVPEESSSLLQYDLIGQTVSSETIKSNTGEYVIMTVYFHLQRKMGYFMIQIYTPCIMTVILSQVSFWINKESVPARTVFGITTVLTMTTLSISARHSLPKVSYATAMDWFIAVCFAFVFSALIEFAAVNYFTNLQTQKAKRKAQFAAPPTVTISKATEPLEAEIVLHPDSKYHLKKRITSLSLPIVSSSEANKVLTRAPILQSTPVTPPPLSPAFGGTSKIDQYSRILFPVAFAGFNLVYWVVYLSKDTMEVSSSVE
T1 sequence (P28472 26-473 partner): as the sequence (P28472 26-473 partner) above
T1 sequence (P18507 40-467 isoform P18507-1 limits assumed): as the sequence (P18507 40-467 isoform P18507-1 limits assumed) above
Method for α1β3γ2: Radioligand binding studies were carried out using membranes prepared from cells stably transfected with the following subunit combinations:—α1β3γ2, α2β3γ2, α3β3γ2, α5β3γ2, α6β3γ2. Incubations were carried out using 20-100 mg of membrane protein in a total volume of 0.5 ml in 10 mM Tris-HCl, 1 mM EDTA pH 7.4 for one hour at room temperature prior to termination through Whatman GF/C filters followed by 3×3 ml washes with 5 mM Tris-HCl pH 7.5 and scintillation counting. […] Ki values were calculated according to the Cheng-Prussof equation.
Ki values were calculated according to the Cheng-Prussof equation. Data shown are mean±SEM values for 3-6 determinations.

Consider `CCOC(=O)c1ncn2c1[C@@H]1CCCN1C(=O)c1cc(OC)ccc1-2` [FG 8094, 9H-imidazo[1,5-a]pyrrolo[2,1-C][1,4]benzodiazepine-1-carboxylic acid, 11, 12, 13, 13a-tetrahydro-7-methoxy-9-oxo-, ethyl ester, (S)-(9CI)], for which, at α6β3γ2, the Ki came to 83.2 ± 4.5 nM. The “displacement of [3H]Ro 15-1788 binding, whole brain” value with GABAA receptors (10.0 mg/kg intraperitoneally, p<0.05) is given as “significantly displaced”. Further, the “displacement of specific [3H]Ro 15-1788 binding, whole brain” value in the series with GABAA receptors (intraperitoneally at doses of up to 3.0 mg/kg) was “did not significantly displace”. Further, at Cerebellum (α1) (setting [2]), the inhibition at 1 mg/kg is 13.8 ± 4.9% and the inhibition at 10 mg/kg was found to be 55 ± 6.9%. Also, the receptor occupancy at 1 mg/kg on Cerebellum (α1) (read-out: occupancy of α1 receptors) was less than 15%. Also, the concentration at 30 min in series [1] worked out at 7.8 nM. The molecule also registered a Ki at α1β3γ2 of 48.5 ± 6 nM.
